Results published in ChEMBL document CHEMBL4828775, “Antimicrobial and Cytotoxic Angucyclic Quinones from Actinomadura miaoliensis” (J Nat Prod, 2021).
In brackets after ≈: the same amount, converted by molar mass.

Key:
[1] = system: Vero; assay: Cytotoxicity against African green monkey Vero cells assessed as reduction in cell viability by resazurin microplate assay; type: cell-based; settings: Chlorocebus sabaeus
[2] = system: Curvularia lunata; assay: Antifungal activity against Curvularia lunata assessed as inhibition of fungal growth by CLSI based microdilution method; type: functional
[3] = system: NCI-H187; assay: Cytotoxicity against human NCI-H187 cells assessed as reduction in cell viability by resazurin microplate assay; type: functional, cell-based
[4] = system: MCF7; assay: Cytotoxicity against human MCF7 cells assessed as reduction in cell viability by resazurin microplate assay; type: functional, cell-based
[5] = system: Plasmodium falciparum; assay: Antimalarial activity against Plasmodium falciparum K1 assessed as inhibition of parasite growth by microculture radioisotope technique; type: functional, organism-based
[6] = system: Staphylococcus aureus; assay: Antibacterial activity against Staphylococcus aureus assessed as inhibition of bacterial growth by CLSI based microdilution method; type: functional
[7] = system: Acinetobacter baumannii; assay: Antibacterial activity against Acinetobacter baumannii assessed as inhibition of bacterial growth by CLSI based microdilution method; type: functional
[8] = system: Alternaria brassicicola; assay: Antifungal activity against Alternaria brassicicola assessed as inhibition of fungal growth by CLSI based microdilution method; type: functional
[9] = system: Mycobacterium tuberculosis; assay: Antitubercular activity against Mycobacterium tuberculosis H37Ra assessed as inhibition of bacterial growth by green fluorescent protein based method; type: functional

| SMILES | IC50 [1] [µM] | MIC [2] [µM] | IC50 [3] [µM] | IC50 [4] [µM] | IC50 [5] [µM] | MIC [6] [µM] | MIC [7] [µM] | MIC [8] [µM] | MIC [9] [µM] |
| --- | --- | --- | --- | --- | --- | --- | --- | --- | --- |
| CC1=CC(=O)[C@@H]2[C@H]3[C@H](CC[C@]2(O)C1)C(=O)c1c(O)cccc1[C@@H]3O | 147 | > 150 | > 150 | > 150 | 28.3 | > 150 | > 150 | > 150 | 9.5 (≈ 3.12 µg/mL) |
| CC1=CC(=O)[C@@H]2C3=C(CC[C@]2(O)C1)C(=O)c1c(O)cccc1C3=O | 1.8 | > 150 | 2.2 | 2.2 | 2.2 | > 150 | > 150 | > 150 | 0.6 (≈ 0.195 µg/mL) |
| CC1=C[C@@H](O)[C@H]2[C@](O)(CC[C@]3(O)C(=O)c4c(O)cccc4[C@H](O)[C@@]23O)C1 | > 138 | > 138 | > 138 | > 138 | > 28 | > 138 | > 138 | > 138 | 138 (≈ 50 µg/mL) |
| Cc1ccc2c3c(ccc2c1)C(=O)c1c(O)cccc1C3=O | 35.4 | > 150 | 83.3 | 55.3 | > 35 | > 150 | > 150 | > 150 | 10.9 (≈ 3.14 µg/mL) |
| CC1=C[C@@H]2O[C@]34CC[C@](O)(C1)[C@H]2[C@]3(O)[C@@H](O)c1cccc(O)c1C4=O | > 145 | > 145 | > 145 | > 145 | > 28 | > 145 | > 145 | > 145 | 145 (≈ 50 µg/mL) |
| Cc1cc(O)c2c(c1)CCC1=C2C(=O)c2cccc(O)c2C1=O | 1.4 | > 150 | 3 | 1.1 | 2.6 | > 150 | > 150 | > 150 | 0.3 (≈ 0.0919 µg/mL) |
| CC1=C[C@@H](O)[C@@H]2C3=C(CC[C@]2(O)C1)C(=O)c1c(O)cccc1C3=O | 1.1 | > 150 | 2.3 | 3.4 | 2.5 | > 150 | > 150 | > 150 | 2.4 (≈ 0.783 µg/mL) |
| C[C@@H]1[C@H](O)[C@@H](C)/C=C/C=C/C=C/C=C/C=C/C=C/C=C/[C@H](O[C@@H]2O[C@H](C)[C@@H](O)[C@H](N)[C@@H]2O)C[C@@H]2O[C@](O)(C[C@@H](O)C[C@@H](O)[C@H](O)CC[C@@H](O)C[C@@H](O)CC(=O)O[C@H]1C)C[C@H](O)[C@H]2C(=O)O [AMPHOTERICIN B] | – | 1.7 (≈ 1.57 µg/mL) | – | – | – | – | – | 0.8 (≈ 0.739 µg/mL) | – |
| C[C@H]1[C@@H](O)O[C@@H]2O[C@@]3(C)CC[C@H]4[C@H](C)CC[C@@H]1[C@@]24OO3 [ARTENIMOL] | – | – | – | – | 0.002 | – | – | – | – |
| Cc1c2ccncc2c(C)c2c1[nH]c1ccccc12 [ELLIPTECINE] | 4.5 | – | 13.7 | – | – | – | – | – | – |
| CC[C@H]1OC(=O)[C@H](C)[C@@H](O[C@H]2C[C@@](C)(OC)[C@@H](O)[C@H](C)O2)[C@H](C)[C@@H](O[C@@H]2O[C@H](C)C[C@H](N(C)C)[C@H]2O)[C@](C)(O)C[C@@H](C)C(=O)[C@H](C)[C@@H](O)[C@]1(C)O [ERYTHROMYCIN] | – | – | – | – | – | – | 8.5 (≈ 6.24 µg/mL) | – | – |
| NNC(=O)c1ccncc1 [ISONIAZID] | – | – | – | – | – | – | – | – | 0.5 (≈ 0.0686 µg/mL) |
| CO[C@H]1/C=C/O[C@@]2(C)Oc3c(C)c(O)c4c(O)c(c(/C=N/N5CCN(C)CC5)c(O)c4c3C2=O)NC(=O)/C(C)=C\C=C\[C@H](C)[C@H](O)[C@@H](C)[C@@H](O)[C@@H](C)[C@H](OC(C)=O)[C@@H]1C [RIFAMPIN] | – | – | – | – | – | 1.9 (≈ 1.56 µg/mL) | 3.8 (≈ 3.13 µg/mL) | – | 0.006 (≈ 0.00494 µg/mL) |
| Cc1cc(O)c2c3c(ccc2c1)C(=O)c1c(O)cccc1C3=O [TETRANGULOL] | 4.4 | > 150 | 17.1 | 18 | 5.9 | > 150 | > 150 | > 150 | 2.6 (≈ 0.791 µg/mL) |
| CN[C@H](CC(C)C)C(=O)N[C@H]1C(=O)N[C@@H](CC(N)=O)C(=O)N[C@H]2C(=O)N[C@H]3C(=O)N[C@H](C(=O)N[C@H](C(=O)O)c4cc(O)cc(O)c4-c4cc3ccc4O)[C@H](O)c3ccc(c(Cl)c3)Oc3cc2cc(c3O[C@@H]2O[C@H](CO)[C@@H](O)[C@H](O)[C@H]2O[C@H]2C[C@](C)(N)[C@H](O)[C@H](C)O2)Oc2ccc(cc2Cl)[C@H]1O [VANCOMYCIN] | – | – | – | – | – | 0.3 (≈ 0.435 µg/mL) | – | – | – |
